# Laboratory results published in PubChem BioAssay (NCI).
#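 Growth conditions: 96-well plates. Treatment: test compound, 48 hours, 5 concentrations. Analysis: linear interpolation between bracketing concentrations; unreached endpoints set to highest concentration. Here, GI50 denotes the concentration required for 50% inhibition of growth. At the TGI there is no net growth.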
# Assays:
# Assay in all cases: growth of human tumour cells (NCI), 48 h
# OVCAR-5 ovarian = system: OVCAR-5 ovarian
# CCRF-CEM leukemia = system: CCRF-CEM leukemia
# TK-10 renal = system: TK-10 renal
# UACC-62 melanoma = system: UACC-62 melanoma
# SK-OV-3 ovarian = system: SK-OV-3 ovarian
# SR leukemia = system: SR leukemia
# SK-MEL-5 melanoma = system: SK-MEL-5 melanoma
# OVCAR-4 ovarian = system: OVCAR-4 ovarian
# NCI/ADR-RES ovarian = system: NCI/ADR-RES ovarian
# MDA-MB-231 breast = system: MDA-MB-231 breast
Compound,GI50 (OVCAR-5 ovarian) [µM],TGI (OVCAR-5 ovarian) [µM],GI50 (CCRF-CEM leukemia) [µM],TGI (CCRF-CEM leukemia) [µM],GI50 (TK-10 renal) [µM],TGI (TK-10 renal) [µM],GI50 (UACC-62 melanoma) [µM],TGI (UACC-62 melanoma) [µM],GI50 (SK-OV-3 ovarian) [µM],TGI (SK-OV-3 ovarian) [µM],GI50 (SR leukemia) [µM],TGI (SR leukemia) [µM],GI50 (SK-MEL-5 melanoma) [µM],TGI (SK-MEL-5 melanoma) [µM],GI50 (OVCAR-4 ovarian) [µM],TGI (OVCAR-4 ovarian) [µM],GI50 (NCI/ADR-RES ovarian) [µM],TGI (NCI/ADR-RES ovarian) [µM],GI50 (MDA-MB-231 breast) [µM],TGI (MDA-MB-231 breast) [µM]
C[N-]c1nnnn1C.[Au+].c1ccc([PH+](c2ccccc2)c2ccccc2)cc1,19.1,34,0.556,3.44,2.19,4.42,2.06,6.87,13,26.6,1.11,4.12,1.59,3.65,3.19,12.9,–,–,–,–
CCC[CH2][Sn]([CH2]CCC)([CH2]CCC)[O]c1ccc(Cl)cc1Cl,0.14,0.298,–,–,0.215,0.61,0.162,0.357,0.137,0.276,–,–,0.138,0.27,0.114,0.236,0.141,0.312,0.122,0.284
O=C(O)CCCCCCC[C@H]1S[C@H]1CCCCCCO,–,> 100,–,–,–,> 100,–,> 100,–,> 100,–,> 100,–,> 100,–,> 100,–,–,–,–
Cc1cc(S(=O)(=O)Nc2nc3cscc3c(=O)n2Cc2ccccc2)c(S)cc1Cl,87.1,> 100,14,> 100,35,> 100,50.5,> 100,–,–,–,–,21.4,> 100,> 100,> 100,53.4,> 100,34,> 100
COC(=O)N(C(=O)OC)C(C(=O)O)C(C)C (stereo unspecified),–,> 100,–,–,–,> 100,–,–,–,–,–,–,–,–,–,> 100,–,–,–,–
COc1ccc(Nc2nc3ccc(C(F)(F)F)cc3nc2-c2ccccc2)cc1OC,–,> 100,–,> 100,–,–,–,> 100,–,> 100,–,> 100,–,> 100,–,> 100,–,–,–,–
C=C(COC(C)=O)CC(OC(C)=O)c1ccccc1 (stereo unspecified),–,> 100,–,> 100,–,> 100,–,> 100,–,> 100,–,–,–,> 100,–,> 100,–,–,–,–
Cc1ccc(SC(CCC(Sc2ccc(C)cc2)Sc2ccc(C)cc2)Sc2ccc(C)cc2)cc1,–,–,–,> 100,–,> 100,–,> 100,–,> 100,–,> 100,–,> 100,–,> 100,–,–,–,–
C=C1C(=O)O[C@@H]2C[C@@H](C)[C@@H]3C=CC(=O)[C@@]3(C)[C@@H](OC(=O)CC(=O)O[C@H]3[C@@H]4C(=C)C(=O)O[C@@H]4C[C@@H](C)[C@@H]4C=CC(=O)[C@]43C)[C@H]12,–,0.39,–,0.0376,–,0.47,–,0.0716,–,0.785,–,0.0548,–,0.215,–,0.14,–,–,–,1.32
O=C1Nc2ccccc2C12CCNC2Cc1ccccc1 (stereo unspecified),–,> 100,–,> 100,–,> 100,–,> 100,–,> 100,–,–,–,> 100,–,> 100,–,–,–,–
COc1cc(NC(N)=NCCC(C)(C)Oc2ccc(C(F)(F)F)cc2)ncc1C#N,1.88,3.36,–,–,1.54,2.91,1.78,3.18,1.84,3.26,–,–,1.58,2.93,1.58,3.07,1.66,3.24,1.75,3.21
CC1CCC2(CC1)NN=c1s/c(=C\c3ccc(O)cc3)c(=O)n1N2 (stereo unspecified),–,–,–,> 100,–,> 100,–,> 100,–,> 100,–,–,–,> 100,–,> 100,–,–,–,–
CC(C)CC(NC(=O)c1cccc(O)c1O)C(=O)NCc1cc(CNC(=O)C(CC(C)C)NC(=O)c2cccc(O)c2O)cc(CNC(=O)C(CC(C)C)NC(=O)c2cccc(O)c2O)c1 (stereo unspecified),–,27.1,–,54,–,> 100,–,17.8,–,35.5,–,32.2,–,30.4,–,56.5,–,–,–,–
CCCCCC[N+](C)(C)Cc1ccc(C[N+](C)(C)CCCCCC)cc1,–,24.7,–,–,–,24.3,–,29.7,–,33.4,–,5.08,–,28.5,–,> 100,–,–,–,–
CC(C)=CC(=O)C/C(=N\NC(N)=S)C(=O)Nc1ccc(Cl)cc1,–,> 100,–,> 100,–,> 100,–,> 100,–,> 100,–,–,–,> 100,–,> 100,–,–,–,–
Clc1ccc(SC(/C=C/NNC2=NC(c3ccccc3)C(c3ccccc3)=NN2)c2ccccc2)cc1 (stereo unspecified),–,> 100,–,73.1,–,> 100,–,85.3,–,> 100,–,–,–,31.2,–,68.2,–,–,–,–
